Assay results reported in patent publication US20210147343A1 (priority 2018, published 2021).
Like-named read-outs stand apart in the source and are kept apart here.

Assays:
[1] = molecular target: T1, kappa opioid receptor (KOR) (Homo sapiens, UniProt P41145); assay: cell-based; conditions: after activation with dynorphin B
T1 construct: host or cells: CHO-K1
Source text: KOR cAMP Antagonist Assay

[2] = molecular target: T2, mu opioid receptor (MOR) (Homo sapiens, UniProt P35372); assay: MOR cAMP agonist assay
[3] = molecular target: T2, mu opioid receptor (MOR); assay: MOR GTPγS agonist assay; type: biochemical; set-up: host or cells: CHO-K1; conditions: membranes of CHO cells over-expressing MOR; SPA beads; read-out: MOR GTPγS EC50
Source text: Membranes obtained from the stable cell lines over-expressing MOR were subjected to GTPγS assay using SPA beads (Perkin Elmer, Cat #RPNQ0001).

[4] = kOR cAMP IC50, CHO-K1 cells expressing kOR

T2 sequence (P35372 whole entry): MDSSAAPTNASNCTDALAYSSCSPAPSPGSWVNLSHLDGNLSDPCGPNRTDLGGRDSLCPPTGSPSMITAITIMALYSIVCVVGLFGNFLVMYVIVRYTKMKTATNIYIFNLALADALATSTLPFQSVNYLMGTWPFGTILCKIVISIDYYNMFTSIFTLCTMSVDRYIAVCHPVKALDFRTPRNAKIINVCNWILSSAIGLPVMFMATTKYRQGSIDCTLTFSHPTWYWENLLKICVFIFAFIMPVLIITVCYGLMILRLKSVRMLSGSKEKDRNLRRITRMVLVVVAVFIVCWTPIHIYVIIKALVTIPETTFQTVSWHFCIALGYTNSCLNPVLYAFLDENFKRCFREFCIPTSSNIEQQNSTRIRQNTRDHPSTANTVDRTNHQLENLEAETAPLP
T1 sequence (P41145 whole entry): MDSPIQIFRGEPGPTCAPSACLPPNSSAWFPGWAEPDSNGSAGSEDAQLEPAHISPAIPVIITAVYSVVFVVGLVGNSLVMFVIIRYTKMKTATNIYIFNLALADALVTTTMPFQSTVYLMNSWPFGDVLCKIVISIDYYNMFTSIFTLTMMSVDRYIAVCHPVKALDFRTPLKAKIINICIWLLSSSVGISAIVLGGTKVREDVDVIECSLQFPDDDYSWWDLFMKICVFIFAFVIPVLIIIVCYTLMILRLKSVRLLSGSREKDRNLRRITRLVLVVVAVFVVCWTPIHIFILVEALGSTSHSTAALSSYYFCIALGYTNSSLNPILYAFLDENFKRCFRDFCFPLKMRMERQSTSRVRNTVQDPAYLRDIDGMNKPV

| SMILES | IC50 [1, 4] [µM] | EC50 [2] [µM] | further results |
| --- | --- | --- | --- |
| CN(C)[C@H](CNC(=O)[C@@H]1C[C@@]1(C)c1ccccc1)Cc1ccc(O)cc1F [Compound B-44, (1R,2R)—N—((S)-2-(dimethylamino)-3-(2-fluoro-4-hydroxyphenyl)propyl)-2-methyl-2-phenylcyclopropane-1-carboxamide] | > 1 | – | – |
| CN(C)[C@H](CNC(=O)[C@H]1C[C@@]1(C)c1ccccc1)Cc1ccc(O)cc1 [Compound B-58, (1S,2R)—N—((S)-2-(dimethylamino)-3-(4-hydroxyphenyl)propyl)-2-methyl-2-phenylcyclopropane-1-carboxamide] | – | – | IC50 ([1]; read-out: kOR cAMP IC50, CHO-K1 cells expressing kOR): > 1 µM; EC50 ([2]; read-out: mOR cAMP EC50, CHO-K1 cells stably expressing mOR, cAMP levels): 0.1 to 1 µM |
| Cc1cc(C(N)=O)cc(C)c1C[C@@H](CNC(=O)O[C@@H](C)c1ccccc1)N(C)C [Compound A-7, (S)-1-phenylethyl ((S)-3-(4-carbamoyl-2,6-dimethylphenyl)-2-(dimethylamino)propyl)carbamate] | 0.1 to 1 | > 1 | – |
| CN(C)[C@H](CNC(=O)[C@@H]1C[C@]1(C)c1ccccc1)Cc1cc2cn[nH]c2cc1Cl [Compound B-54, (1R,2S)—N—((S)-3-(6-chloro-2H-indazol-5-yl)-2-(dimethylamino)propyl)-2-methyl-2-phenylcyclopropane-1-carboxamide] | 0.1 to 1 | < 0.1 | – |
| CN(C)[C@H](CNC(=O)[C@@H]1C[C@]1(C)c1ccccc1)Cc1ccc2[nH]ncc2c1 [Compound B-19, (1R,2S)—N—((S)-2-(dimethylamino)-3-(1H-indazol-5-yl)propyl)-2-methyl-2-phenylcyclopropane-1-carboxamide] | > 1 | < 0.1 | – |
| CN(C)[C@H](CNC(=O)[C@@H]1C[C@@]1(C)c1ccccc1)Cc1ccc(C(N)=O)cc1 [Compound B-3, 4-((S)-2-(dimethylamino)-3-((1R,2R)-2-methyl-2-phenylcyclopropane-1-carboxamido)propyl)benzamide] | > 1 | < 0.1 | – |
| CN(C)[C@H](CNC(=O)[C@@H]1C[C@@]1(C)c1ccccc1)Cc1ccc(O)cc1 [Compound B-62, (1R,2R)—N—((S)-2-(dimethylamino)-3-(4-hydroxyphenyl)propyl)-2-methyl-2-phenylcyclopropane-1-carboxamide] | 0.1 to 1 | < 0.1 | – |
| C[C@H](OC(=O)NC[C@H](Cc1ccc(C(N)=O)cc1)N(C)C)c1ccccc1 [Compound A-3, (S)-1-phenylethyl ((S)-3-(4-carbamoylphenyl)-2-(dimethylamino)propyl) carbamate] | > 1 | < 0.1 | – |
| CNC(=O)c1ccc(C[C@@H](CNC(=O)[C@@H]2C[C@@]2(C)c2ccccc2)N(C)C)cc1F [Compound B-2, 4-((S)-2-(dimethylamino)-3-((1R,2R)-2-methyl-2-phenylcyclopropane-1-carboxamido)propyl)-2-fluoro-N-methylbenzamide] | > 1 | < 0.1 | – |
| C[C@H](NC(=O)NC[C@H](Cc1ccc(C(N)=O)cc1)N(C)C)c1ccccc1 [Compound A-1, 4-((S)-2-(dimethylamino)-3-(3-((S)-1-phenylethyl)ureido)propyl) benzamide] | 0.1 to 1 | > 1 | – |
| CN(C)[C@H](CNC(=O)C1CC1(C)c1ccccc1)Cc1ccc(C(N)=O)cc1 (stereo partly drawn) [Compound B-61, 4-((2S)-2-(dimethylamino)-3-(2-methyl-2-phenylcyclopropane-1-carboxamido)propyl)benzamide] | > 1 | < 0.1 | – |
| CNC(=O)c1ccc(C[C@@H](CNC(=O)[C@@H]2C[C@]2(C)c2ccccc2)N(C)C)cc1F [Compound B-46, 4-((S)-2-(dimethylamino)-3-((1R,2S)-2-methyl-2-phenylcyclopropane-1-carboxamido)propyl)-2-fluoro-N-methylbenzamide] | > 1 | < 0.1 | – |
| CN(C)[C@H](CNC(=O)[C@@H]1C[C@]1(C)c1ccccc1)Cc1ccc(C(=O)NC2CC2)c(F)c1 [Compound B-39, N-cyclopropyl-4-((S)-2-(dimethylamino)-3-((1R,2S)-2-methyl-2-phenylcyclopropane-1-carboxamido)propyl)-2-fluorobenzamide] | > 1 | < 0.1 | – |
| CN(C)[C@H](CNC(=O)[C@@H]1C[C@]1(C)c1ccccc1)Cc1ccc(C(N)=O)cc1Cl [Compound B-7, 3-chloro-4-((S)-2-(dimethylamino)-3-((1R,2S)-2-methyl-2-phenylcyclopropane-1-carboxamido)propyl)benzamide] | < 0.1 | < 0.1 | – |
| Cc1cc(C(N)=O)cc(C)c1C[C@H](N)CNC(=O)O[C@@H](C)c1ccccc1 [Compound A-5, (S)-1-phenylethyl ((S)-2-amino-3-(4-carbamoyl-2,6-dimethylphenyl)propyl)carbamate] | < 0.1 | 0.1 to 1 | – |
| C[C@]1(c2ccccc2)C[C@H]1C(=O)NC[C@H](Cc1ccc2[nH]ncc2c1)N1CCOCC1 [Compound B-43, (1R,2S)—N—((S)-3-(2H-indazol-5-yl)-2-morpholinopropyl)-2-methyl-2-phenylcyclopropane-1-carboxamide] | – | > 1 | IC50 ([1]; CHO-K1 cells expressing kOR, read-out: kOR cAMP IC50): > 1 µM |

| SMILES | IC50 [1, 4] [µM] | EC50 [2] [µM] | further results |
| --- | --- | --- | --- |
| CN(C)[C@H](CNC(=O)[C@@H]1C[C@]1(C)c1ccccc1)Cc1ccc(O)cc1 [Compound B-12, (1R,2S)—N—((S)-2-(dimethylamino)-3-(4-hydroxyphenyl)propyl)-2-methyl-2-phenylcyclopropane-1-carboxamide] | < 0.1 | > 1 | – |
| Cc1ccc(C(=O)NC[C@H](Cc2ccc(C(N)=O)cc2)N(C)C)c(C)c1 [Compound C-67, (S)—N-(3-(4-carbamoylphenyl)-2-(dimethylamino)propyl)-2,4-dimethylbenzamide] | > 1 | – | EC50 [3]: < 0.1 µM |
| CN(C)[C@H](CNC(=O)N[C@H](c1ccccc1)C1CC1)Cc1ccc(C(N)=O)cc1 [Compound A-4, 4-((S)-3-(3-((S)-cyclopropyl(phenyl)methyl)ureido)-2-(dimethylamino)propyl)benzamide] | < 0.1 | < 0.1 | – |
| CN(C)[C@H](CNC(=O)[C@@H]1C[C@]1(C)c1ccccc1)Cc1ccc(C(N)=O)cc1 [Compound B-5, 4-((S)-2-(dimethylamino)-3-((1R,2S)-2-methyl-2-phenylcyclopropane-1-carboxamido)propyl)benzamide] | < 0.1 | < 0.1 | – |
| C[C@H](CC(=O)NC[C@H](Cc1ccc(C(N)=O)cc1)N(C)C)c1ccccc1 [Compound A-10, 4-((S)-2-(dimethylamino)-3-((R)-3-phenylbutanamido)propyl)benzamide] | 0.1 to 1 | – | – |
| CN(C)[C@H](CNC(=O)[C@H]1C[C@@]1(C)c1ccccc1)Cc1ccc(C(N)=O)cc1 [Compound B-4, 4-((S)-2-(dimethylamino)-3-((1S,2R)-2-methyl-2-phenylcyclopropane-1-carboxamido)propyl)benzamide] | 0.1 to 1 | < 0.1 | – |
| CN(CC1CC1)[C@H](CNC(=O)[C@@H]1C[C@]1(C)c1ccccc1)Cc1ccc2[nH]c(=O)oc2c1 [Compound B-32, (1R,2S)—N—((S)-2-((cyclopropylmethyl)(methyl)amino)-3-(2-oxo-2,3-dihydrobenzo[d]oxazol-6-yl)propyl)-2-methyl-2-phenylcyclopropane-1-carboxamide] | – | 0.1 to 1 | – |
| CCNC(=O)c1ccc(C[C@@H](CNC(=O)[C@@H]2C[C@]2(C)c2ccccc2)N(C)C)cc1F [Compound B-34, 4-((S)-2-(dimethylamino)-3-((1R,2S)-2-methyl-2-phenylcyclopropane-1-carboxamido)propyl)-N-ethyl-2-fluorobenzamide] | – | < 0.1 | – |
| CN(C)[C@H](CNC(=O)[C@@H]1C[C@]1(C)c1ccccc1)Cc1cc(F)c(O)c(Cl)c1 [Compound B-24, (1R,2S)—N—((S)-3-(3-chloro-5-fluoro-4-hydroxyphenyl)-2-(dimethylamino)propyl)-2-methyl-2-phenylcyclopropane-1-carboxamide] | 0.1 to 1 | – | – |
| CN1Cc2cc(O)ccc2C[C@H]1CNC(=O)[C@@H]1C[C@]1(C)c1ccccc1 [Compound B-50, (1R,2S)—N—(((S)-7-hydroxy-2-methyl-1,2,3,4-tetrahydroisoquinolin-3-yl)methyl)-2-methyl-2-phenylcyclopropane-1-carboxamide] | – | < 0.1 | – |
| CN1Cc2cc(O)ccc2C[C@H]1CNC(=O)[C@@H]1C[C@@]1(C)c1ccccc1 [Compound B-51, (1R,2R)—N—(((S)-7-hydroxy-2-methyl-1,2,3,4-tetrahydroisoquinolin-3-yl)methyl)-2-methyl-2-phenylcyclopropane-1-carboxamide] | – | < 0.1 | – |
| CC[C@@]1(c2ccccc2)C[C@H]1C(=O)NC[C@H](Cc1ccc(C(=O)NC)c(F)c1)N(C)C [Compound B-21, 4-((S)-2-(dimethylamino)-3-((1R,2R)-2-ethyl-2-phenylcyclopropane-1-carboxamido)propyl)-2-fluoro-N-methylbenzamide] | – | < 0.1 | – |
| CN(C)[C@H](CNC(=O)[C@H]1C[C@@H]1c1ccccc1)Cc1ccc(O)cc1 [Compound B-18, (1S,2S)—N—((S)-2-(dimethylamino)-3-(4-hydroxyphenyl)propyl)-2-phenylcyclopropane-1-carboxamide] | 0.1 to 1 | – | – |
| CNC(=O)c1cc(C)c(C[C@@H](CNC(=O)c2ccccc2)N(C)C)c(C)c1 [Compound C-45] | > 1 | – | EC50 [3]: < 0.1 µM |
| CNC(=O)c1c(F)cc(C[C@@H](CNC(=O)[C@@H]2C[C@]2(C)c2ccccc2)N(C)C)cc1F [Compound B-27, 4-((S)-2-(dimethylamino)-3-((1R,2S)-2-methyl-2-phenylcyclopropane-1-carboxamido)propyl)-2,6-difluoro-N-methylbenzamide] | – | < 0.1 | – |
